The nature of series [1]: Cmax in male Sprague-Dawley rat at 10 mg/kg, iv measured upto 24 hrs. The class given is ADME, organism-based. To be noted: in vivo.
The nature of series [2]: Half life in male Sprague-Dawley rat at 10 mg/kg, iv measured upto 24 hrs. The class given is ADME, organism-based. The note with it: in vivo.
Series [3] can be described thus: Tmax in male Sprague-Dawley rat at 10 mg/kg, iv measured upto 24 hrs. Type of series: ADME, organism-based. To be noted: in vivo.
The nature of series [4]: AUC (0 to 24 hrs) in male Sprague-Dawley rat at 10 mg/kg, iv measured upto 24 hrs. To be noted: in vivo. Type of series: ADME, organism-based.
Series [5] can be described thus: Clearance in male Sprague-Dawley rat at 10 mg/kg, iv measured upto 24 hrs. Type of series: ADME, organism-based. The note with it: in vivo.
A short description of series [6]: Cmax in male Sprague-Dawley rat at 20 mg/kg, po measured upto 24 hrs. Type of series: ADME, organism-based. The note with it: in vivo.
Series [7] can be described thus: Half life in male Sprague-Dawley rat at 20 mg/kg, po measured upto 24 hrs. Type of series: ADME, organism-based. The note with it: in vivo.
A short description of series [8]: Tmax in male Sprague-Dawley rat at 20 mg/kg, po measured upto 24 hrs. Type of series: ADME, organism-based. The note with it: in vivo.
Series [9] can be described thus: AUC (0 to 24 hrs) in male Sprague-Dawley rat at 20 mg/kg, po measured upto 24 hrs. To be noted: in vivo. Type of series: ADME, organism-based.
Series [10] can be described thus: Clearance in male Sprague-Dawley rat at 20 mg/kg, po measured upto 24 hrs. Type of series: ADME, organism-based. To be noted: in vivo.
The nature of series [11]: Oral bioavailability in male Sprague-Dawley rat at 20 mg/kg measured upto 24 hrs. Type of series: ADME, organism-based. The note with it: in vivo.
Series [12] deals with RAW264.7. The series is described as follows: Anti-inflammatory activity in LPS-induced ALI in mouse RAW264.7 cells assessed as decrease in intracellular ROS level by DCFH-DA staining based flow cytometry analysis (reference value: 91.2%). Type of series: functional. Further details: scale not given: the % may be the effect or the level left. In general terms: A flow cytometer gives signals particle by particle.

The test system of series [13] is RAW264.7. Briefly: Induction of pyroptosis in LPS induced mouse RAW264.7 cells by caspase-1/PI staining based flow cytometry (reference value: 49.6 %). Type of series: functional.
For the next series, the target named is P2Y purinoceptor 1 (Homo sapiens, UniProt P47900). Briefly: Antagonist activity at human P2Y1R stably expressed in HEK293 cells assessed as inhibition of ADP-induced IP3 accumulation preincubated with compound for 30 mins followed by ADP addition by ELISA method. The class given is functional, cell-based. In general terms: In an ELISA, binding on a coated surface is turned into a signal by an enzyme label.

The next series deals with P2Y purinoceptor 2 (Homo sapiens, UniProt P41231). The series is described as follows: Antagonist activity at human P2Y2R stably expressed in HEK293 cells assessed as inhibition of UTP-induced IP3 accumulation preincubated with compound for 30 mins followed by UTP addition by ELISA method. The class given is functional, cell-based.
Another series deals with P2Y purinoceptor 4 (Homo sapiens, UniProt P51582). The series is described as follows: Antagonist activity at human P2Y4R stably expressed in HEK293 cells assessed as inhibition of UTP-induced IP3 accumulation preincubated with compound for 30 mins followed by UTP addition by ELISA. The class given is functional, cell-based.
The target of a further series is P2Y purinoceptor 6 (Homo sapiens, UniProt Q15077). Briefly: Antagonist activity at human P2Y6R stably expressed in HEK293 cells assessed as inhibition of UDP-induced IP3 accumulation preincubated with compound for 30 mins followed by UDP addition by ELISA. Type of series: functional, cell-based.
For another series, the target named is P2Y purinoceptor 12 (Homo sapiens, UniProt Q9H244). The series is described as follows: Antagonist activity at human P2Y12R stably expressed in HEK293 cells assessed as inhibition of 2-MeSADP-induced IP3 accumulation preincubated with compound for 30 mins followed by 2-MeSADP addition by ELISA. Type of series: functional, cell-based.
A further series addresses T1, Cytochrome P450 1A2 (Homo sapiens, UniProt P05177).
T1 sequence (P05177 whole entry): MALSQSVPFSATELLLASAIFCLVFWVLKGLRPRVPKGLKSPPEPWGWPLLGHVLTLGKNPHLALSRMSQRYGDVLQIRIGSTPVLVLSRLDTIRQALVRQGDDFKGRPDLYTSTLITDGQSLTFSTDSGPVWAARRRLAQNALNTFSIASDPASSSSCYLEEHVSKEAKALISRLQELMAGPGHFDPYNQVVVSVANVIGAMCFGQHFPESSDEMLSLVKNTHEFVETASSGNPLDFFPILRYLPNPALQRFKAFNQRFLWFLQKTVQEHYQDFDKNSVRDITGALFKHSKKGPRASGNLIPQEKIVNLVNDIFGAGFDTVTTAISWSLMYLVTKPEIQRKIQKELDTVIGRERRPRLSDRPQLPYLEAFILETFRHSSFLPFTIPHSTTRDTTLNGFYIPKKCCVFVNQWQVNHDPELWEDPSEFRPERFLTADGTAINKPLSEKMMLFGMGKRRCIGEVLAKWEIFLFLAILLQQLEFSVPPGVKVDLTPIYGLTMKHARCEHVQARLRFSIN
The series is described as follows: Inhibition of CYP1A2 in human liver microsomes using phenacetin as substrate measured after 30 mins by LC/MS analysis. Type of series: ADME, Microsome. For orientation: Microsomes from liver hold many membrane-bound enzymes, among them those of drug oxidation.

The target in another series is Cytochrome P450 2C9 (Homo sapiens, UniProt P11712). The series is described as follows: Inhibition of CYP2C9 in human liver microsomes using diclofenac as substrate measured after 30 mins by LC/MS analysis. The class given is ADME, Microsome.
The target of the next series is Cytochrome P450 2C19 (Homo sapiens, UniProt P33261). The series is described as follows: Inhibition of CYP2C19 in human liver microsomes using mephenytoin as substrate measured after 30 mins by LC/MS analysis. The class given is ADME, Microsome.
The target of a further series is Cytochrome P450 2D6 (Homo sapiens, UniProt P10635). The series is described as follows: Inhibition of CYP2D6 in human liver microsomes using dextromethorphan as substrate measured after 30 mins by LC/MS analysis. Type of series: ADME, Microsome.
Another series addresses Cytochrome P450 3A4 (Homo sapiens, UniProt P08684). The series is described as follows: Inhibition of CYP3A4 in human liver microsomes using midazolam as substrate measured after 30 mins by LC/MS analysis. The class given is ADME, Microsome.
The nature of series [14]: Stability of the compound in stimulated intestinal fluid assessed as half life. The class given is physicochemical. The note with it: simulated intestinal fluid.
A short description of series [15]: Stability of the compound in stimulated gastric fluid assessed as half life. Type of series: physicochemical. The note with it: simulated gastric fluid.
Series [16] in a line: Metabolic stability in human liver microsomes assessed as intrinsic clearance at […] measured upto 45 mins in presence of NADPH by LC-MS analysis. Type of series: ADME, Microsome. The note with it: read-out: CLH.
Series [17] is described as follows: Metabolic stability in human liver microsomes assessed as half life at […] measured upto 45 mins in presence of NADPH by LC-MS analysis. The class given is ADME, Microsome.
The test system of series [18] is RAW264.7. The series is described as follows: Cytotoxicity in mouse Raw264.7 cells at <80 uM incubated for 24 hrs by SRB method. The class given is toxicity, cell-based. To be noted: raw264.7, 24 h.

Chain of Cytochrome P450 2C9 (P11712 whole entry): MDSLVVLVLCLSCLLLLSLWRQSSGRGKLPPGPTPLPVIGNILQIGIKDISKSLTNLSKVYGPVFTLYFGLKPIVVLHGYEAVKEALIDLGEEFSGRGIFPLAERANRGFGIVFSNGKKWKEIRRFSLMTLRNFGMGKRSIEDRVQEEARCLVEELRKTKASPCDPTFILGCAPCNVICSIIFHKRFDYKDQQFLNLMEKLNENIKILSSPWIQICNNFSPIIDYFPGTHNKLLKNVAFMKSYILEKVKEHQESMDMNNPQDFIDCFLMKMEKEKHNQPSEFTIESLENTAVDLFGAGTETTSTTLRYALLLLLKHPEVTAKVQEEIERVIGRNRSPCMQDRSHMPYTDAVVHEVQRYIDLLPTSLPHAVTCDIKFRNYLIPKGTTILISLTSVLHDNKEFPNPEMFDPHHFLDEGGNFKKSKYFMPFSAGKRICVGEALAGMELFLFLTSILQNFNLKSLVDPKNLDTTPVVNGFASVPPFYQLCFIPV
Chain of P2Y purinoceptor 12 (Q9H244 whole entry): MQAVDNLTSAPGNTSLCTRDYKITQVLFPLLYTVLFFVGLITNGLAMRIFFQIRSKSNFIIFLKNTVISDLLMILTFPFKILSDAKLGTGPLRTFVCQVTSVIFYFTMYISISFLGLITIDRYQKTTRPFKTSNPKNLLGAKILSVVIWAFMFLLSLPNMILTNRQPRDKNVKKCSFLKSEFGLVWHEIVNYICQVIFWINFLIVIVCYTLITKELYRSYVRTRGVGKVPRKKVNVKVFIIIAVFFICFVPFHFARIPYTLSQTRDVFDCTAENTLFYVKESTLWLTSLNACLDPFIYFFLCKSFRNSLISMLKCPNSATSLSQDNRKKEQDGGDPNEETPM
Chain of Cytochrome P450 2C19 (P33261 whole entry): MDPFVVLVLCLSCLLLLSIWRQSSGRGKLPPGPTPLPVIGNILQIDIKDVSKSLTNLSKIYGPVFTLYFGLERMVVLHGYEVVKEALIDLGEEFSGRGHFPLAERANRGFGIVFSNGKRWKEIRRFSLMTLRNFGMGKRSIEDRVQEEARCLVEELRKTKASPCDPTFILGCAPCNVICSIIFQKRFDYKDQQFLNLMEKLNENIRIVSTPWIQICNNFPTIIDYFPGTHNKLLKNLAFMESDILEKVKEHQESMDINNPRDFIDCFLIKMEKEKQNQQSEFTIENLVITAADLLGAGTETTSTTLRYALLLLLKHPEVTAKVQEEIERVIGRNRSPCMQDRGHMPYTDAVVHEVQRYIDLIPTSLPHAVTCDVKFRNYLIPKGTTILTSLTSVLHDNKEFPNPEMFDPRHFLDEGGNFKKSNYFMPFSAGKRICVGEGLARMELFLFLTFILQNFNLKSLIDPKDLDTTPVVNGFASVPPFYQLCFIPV
Chain of Cytochrome P450 2D6 (P10635 whole entry): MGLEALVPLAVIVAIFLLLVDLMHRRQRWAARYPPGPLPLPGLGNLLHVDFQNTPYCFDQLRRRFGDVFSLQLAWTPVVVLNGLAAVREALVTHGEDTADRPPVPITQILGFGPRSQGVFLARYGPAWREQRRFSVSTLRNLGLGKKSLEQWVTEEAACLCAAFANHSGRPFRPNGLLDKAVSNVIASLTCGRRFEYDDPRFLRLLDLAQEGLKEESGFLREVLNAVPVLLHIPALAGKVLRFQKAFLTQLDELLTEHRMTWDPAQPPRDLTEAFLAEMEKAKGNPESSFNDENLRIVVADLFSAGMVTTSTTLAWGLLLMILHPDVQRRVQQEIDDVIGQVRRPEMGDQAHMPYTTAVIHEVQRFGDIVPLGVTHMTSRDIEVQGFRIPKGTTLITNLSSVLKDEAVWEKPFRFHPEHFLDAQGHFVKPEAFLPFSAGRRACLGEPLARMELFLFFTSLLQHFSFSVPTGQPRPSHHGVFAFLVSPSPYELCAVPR
Chain of Cytochrome P450 3A4 (P08684 whole entry): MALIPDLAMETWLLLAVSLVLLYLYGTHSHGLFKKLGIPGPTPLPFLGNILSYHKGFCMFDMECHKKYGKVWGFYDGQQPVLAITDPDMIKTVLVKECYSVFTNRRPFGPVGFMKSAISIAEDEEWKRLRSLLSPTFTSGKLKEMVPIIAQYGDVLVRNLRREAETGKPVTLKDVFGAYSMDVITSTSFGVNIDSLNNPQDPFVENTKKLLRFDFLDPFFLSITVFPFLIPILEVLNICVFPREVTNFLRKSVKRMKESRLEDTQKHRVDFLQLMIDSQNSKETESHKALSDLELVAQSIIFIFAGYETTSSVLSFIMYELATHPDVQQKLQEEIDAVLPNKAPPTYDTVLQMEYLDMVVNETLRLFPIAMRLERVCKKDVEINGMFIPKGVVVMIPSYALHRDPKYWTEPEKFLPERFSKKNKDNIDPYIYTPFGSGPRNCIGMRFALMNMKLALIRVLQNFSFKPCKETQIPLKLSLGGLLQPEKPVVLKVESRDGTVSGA
Chain of P2Y purinoceptor 6 (Q15077 whole entry): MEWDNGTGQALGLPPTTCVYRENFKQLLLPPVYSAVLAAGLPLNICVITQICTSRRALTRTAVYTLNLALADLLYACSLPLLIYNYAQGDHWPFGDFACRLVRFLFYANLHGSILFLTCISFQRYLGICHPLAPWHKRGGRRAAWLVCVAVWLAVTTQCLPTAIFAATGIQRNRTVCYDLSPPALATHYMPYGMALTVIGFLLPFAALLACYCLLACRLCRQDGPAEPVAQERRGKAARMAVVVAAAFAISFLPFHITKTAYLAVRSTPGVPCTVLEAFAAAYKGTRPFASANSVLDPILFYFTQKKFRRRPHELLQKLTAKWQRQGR
Chain of P2Y purinoceptor 1 (P47900 whole entry): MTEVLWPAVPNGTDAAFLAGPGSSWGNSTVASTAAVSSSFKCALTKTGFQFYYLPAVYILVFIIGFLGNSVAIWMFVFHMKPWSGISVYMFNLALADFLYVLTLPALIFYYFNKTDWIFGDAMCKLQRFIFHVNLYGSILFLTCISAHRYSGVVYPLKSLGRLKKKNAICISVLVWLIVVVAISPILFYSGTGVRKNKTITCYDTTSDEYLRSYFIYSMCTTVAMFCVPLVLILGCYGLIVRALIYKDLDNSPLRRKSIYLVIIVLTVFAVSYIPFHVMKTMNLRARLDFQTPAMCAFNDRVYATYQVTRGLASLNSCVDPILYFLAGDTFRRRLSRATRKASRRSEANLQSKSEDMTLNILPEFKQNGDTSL
Chain of P2Y purinoceptor 4 (P51582 whole entry): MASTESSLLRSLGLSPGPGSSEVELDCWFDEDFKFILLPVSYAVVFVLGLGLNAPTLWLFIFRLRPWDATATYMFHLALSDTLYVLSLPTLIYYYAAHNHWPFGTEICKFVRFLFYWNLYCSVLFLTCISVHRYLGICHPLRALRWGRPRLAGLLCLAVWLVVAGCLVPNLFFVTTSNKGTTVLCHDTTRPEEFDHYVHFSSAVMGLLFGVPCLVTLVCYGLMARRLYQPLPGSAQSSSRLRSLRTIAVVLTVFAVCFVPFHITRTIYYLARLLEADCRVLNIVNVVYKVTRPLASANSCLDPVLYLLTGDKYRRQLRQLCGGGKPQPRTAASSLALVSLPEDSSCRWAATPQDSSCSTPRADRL
Chain of P2Y purinoceptor 2 (P41231 whole entry): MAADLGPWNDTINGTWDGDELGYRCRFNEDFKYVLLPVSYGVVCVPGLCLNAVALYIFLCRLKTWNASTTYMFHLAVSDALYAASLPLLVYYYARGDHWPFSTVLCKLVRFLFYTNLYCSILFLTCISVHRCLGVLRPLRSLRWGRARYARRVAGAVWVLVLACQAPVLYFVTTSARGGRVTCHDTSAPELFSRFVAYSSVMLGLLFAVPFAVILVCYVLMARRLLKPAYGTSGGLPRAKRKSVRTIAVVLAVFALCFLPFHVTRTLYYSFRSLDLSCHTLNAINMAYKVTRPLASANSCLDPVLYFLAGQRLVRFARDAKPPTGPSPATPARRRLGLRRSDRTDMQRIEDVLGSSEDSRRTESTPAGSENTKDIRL

What is called Cmax is the maximum level reached in the sampled fluid or tissue. For orientation: Tmax means the time from dosing to the highest level. Usually AUC stands for the area under the concentration-time curve, a measure of exposure. Usually clearance stands for the rate of elimination divided by the concentration. One may read the half-life as the time in which the quantity being followed falls by half. In general, CL/F refers to the apparent clearance, not corrected for the fraction that reaches the circulation. In the case of `O=C(O)c1cc(-c2ccc(C3CCNCC3)cc2)c2ccc(-c3ccc(C(F)(F)F)cc3)cc2c1` [PPTN], the highest concentration (Cmax) in series [1] (iv, 10 mg/kg, 24 h) amounted to 1024 ng/mL; in [6] it was 1540 ng/mL. This compound displayed a t1/2 in series [2] (iv, 10 mg/kg, 24 h) of 12 min. In addition, the time to peak (Tmax) in [3] (iv, 10 mg/kg, 24 h) was 8 min; in [8], 17 min. The AUC in series [4] (iv, 10 mg/kg, 24 h) was 2411 ng·h/mL; in [9] (po, 20 mg/kg, 24 h), 3001 ng·h/mL. In series [5], the clearance turned out to be 11.5 mL/min/kg. In series [7], this compound showed a half-life of 24 min. This compound displayed an apparent clearance CL/F in [10] of 22.1 mL/min/kg. The compound also came in with a F in series [11] (po, 20 mg/kg, 24 h) of 12%. In addition, the Activity in the series on RAW264.7 [12] is 58.7%; in the series with RAW264.7 [13], 8.93%.
As a reminder, the IC50 is the concentration that gives 50% inhibition. A word on the AUC(0-t): it is the area under the concentration-time curve up to a stated or last time point. By bioavailability is commonly meant dose-corrected exposure relative to a reference, in per cent. As for `COC(=O)c1cc(NC(=O)Cc2ccc(C)cc2)cc(-c2nc3ccccc3[nH]2)c1`, the IC50 was > 100 µM on P2Y purinoceptor 1; > 100 µM at P2Y purinoceptor 2; > 100 µM on P2Y purinoceptor 4; 47.6 µM on P2Y purinoceptor 6; > 100 µM at P2Y purinoceptor 12; > 30 µM on Cytochrome P450 1A2. Further, the IC50 against Cytochrome P450 2C9, against Cytochrome P450 2C19, against Cytochrome P450 2D6 and against Cytochrome P450 3A4 was > 30 µM throughout. The half-life was > 300 min in [14]; > 50 h in series [15]; 354 min in series [17]; 48 min in [2] (male, Sprague-Dawley); 96 min in [7]. In addition, the microsomal CLint in series [16] came out at 25.6 µL/min/mg. Moreover, the highest concentration (Cmax) is 964 ng/mL in [1] (male, Sprague-Dawley, read-out: Cmax) and 1940 ng/mL in series [6]. Further, the time to peak (Tmax) is 19 min in series [3] (male, Sprague-Dawley, read-out: Tmax (converted)) and 26 min in series [8]. The AUC(0-t) at 24 h in [4] (male, Sprague-Dawley) worked out at 895 ng·h/mL; in series [9] (male, Sprague-Dawley) it was 1120 ng·h/mL. This compound came in with a clearance in series [5] of 26.1 mL/min/kg. In [10], the apparent clearance CL/F was 46.5 mL/min/kg. The compound also gave a bioavailability in series [11] (male, Sprague-Dawley) of 38%. Besides, the Activity result in the series on RAW264.7 [18] is listed as “Non-toxic”.

The values above are taken from ChEMBL document CHEMBL6096734, “Design, Synthesis and Anti-Inflammatory Evaluation of 3-Substituted 5-Amidobenzoate Derivatives as Novel P2Y14 Receptor Antagonists via Structure-Guided Molecular Hybridization” (J Med Chem, 2025).
